# Read-outs that look alike come from different tables or passages of the source.
# Assays:
# [1] = system: patients having melanoma with NRAS mutation and solid tumors with BRAF V600 and non-V600 mutants; settings: 600 mg twice a day; cited from earlier work
# ERK2 kinase = ERK2 kinase (Homo sapiens (Human), UniProt P28482); test: In vitro enzyme activity assay, ERK2 kinase (Z'-LYTE); assay type: biochemical
# Procedure: Half inhibitory activity of the compounds of the invention against ERK2 kinase (IC50 value) was determined in this Example.
# • Enzyme: extracellular signal-regulated kinase ERK2 kinase (PV3595, Invitrogen) • Kit: Z′-LYTE® Protein Kinase Assay Kit-Ser/Thr 3 Peptide (PV3176, Invitrogen) • Kit components: The substrate Z′-LYTE™ Ser/Thr 3 Peptide (PV3200) • The phosphorylation substrate Z′-LYTE™ Ser/Thr 3 Phospho-peptide (PV3215) • 5× kinase buffer: 250 mM HEPES (pH 7.5), 50 mM MgCl2, • 5 mM EGTA, 0.05% BRIJ-35 (PV3189, Invitrogen) • ATP (PV3227, Invitrogen) • Development Reagent A (PV3295, Invitrogen) • Development Buffer (P3127, Invitrogen) • Stop Reagent (P3094, Invitrogen) • Microplate reader: The multil-mode microplate reader PerkinElmer EnVision® • Microplate: black shallow 384-well microplate (6008269, PerkinElmer) (2). Assay Protocol:
# The substrate Z′-LYTE™ Ser/Thr 3 Peptide, the phosphorylation substrate Z′-LYTE™ Ser/Thr 3 Phospho-peptide, 1× kinase buffer (5× kinase buffer was diluted with ultra pure water by five times), ATP, Development Reagent A, Development Buffer, Stop Reagent were balanced to room temperature for use. The screening concentrations for detecting the effect of the compounds of the invention on the ERK kinase activity were seven 3-fold serial dilutions starting from 1 μM (from 0.2 μM for the positive drug control) using 4% DMSO as co-solvent. 5 μL enzyme system (50 mM HEPES pH 7.5, 1 mM EGTA, 10 mM MgCl2, 0.01% Brij-35, 4 uM substrate, 0.8 ng/μL enzyme), 2.5 μL Compound, 2.5 μL 400 μM ATP were added into 384 well microplate, followed by incubation at room temperature for 60 min in the dark. After the reaction was completed, 5 μl the developing agent (Development Reagent A) diluted with the developing buffer (Development Buffer) was added to all reaction wells, followed by incubation at the room temperature for 60 min in the dark. 5 μL the terminating agent was added to each well to terminate the reaction. The fluorescence was determined using the multil-mode microplate reader PerkinElmer EnVision® (excitation wavelength 400 nm, emission wavelength 460 nm and 528 nm).
# The inhibition rate of each well was calculated from 100% phosphorylation substrate well and 0% phosphorylation substrate well using the data analysis method below: phosphorylation %=1−{(emission rate×F100%−C100%)/[C0%−C100%+emission rate×(F100%−F0%)]}×100 inhibition %=100×(1−phosphorylation % of the test compound well/phosphorylation % of the 0% inhibition control) • wherein: • emission rate=fluorescence emission of the sample at 445 nm/fluorescence emission of the sample at 520 nm • F100%=the average fluorescence emission of the control well of 100% phosphorylation substrate at 520 nm • F0%=the average fluorescence emission of the control well of 0% phosphorylation substrate at 520 nm • C100%=the average fluorescence emission of the control well of 100% phosphorylation substrate at 445 nm • C0%=the average fluorescence emission of the control well of 0% phosphorylation substrate at 445 nm
# Tests were carried out in duplicate. IC50 values were calculated from the inhibition of the kinase by the test compounds at a range of different concentrations.
# [2] = class symbols, read-out: ERK2 IC50
# [3] = read-out: IC50 against ERK2 kinase
# ERK2 kinase, sequence (P28482 whole entry): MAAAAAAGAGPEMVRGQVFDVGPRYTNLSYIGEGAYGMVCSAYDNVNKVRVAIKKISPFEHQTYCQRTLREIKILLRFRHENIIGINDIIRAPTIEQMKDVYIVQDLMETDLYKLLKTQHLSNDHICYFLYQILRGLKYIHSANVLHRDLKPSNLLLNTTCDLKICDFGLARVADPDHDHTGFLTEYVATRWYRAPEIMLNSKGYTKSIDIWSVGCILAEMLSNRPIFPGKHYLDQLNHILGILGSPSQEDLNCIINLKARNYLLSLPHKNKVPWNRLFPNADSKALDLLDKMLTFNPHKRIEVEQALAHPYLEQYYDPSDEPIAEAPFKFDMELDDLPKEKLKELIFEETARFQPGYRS
SMILES,IC50 (ERK2 kinase; [2]) [nM],also measured
"CC(C)Nc1cc(-c2c[nH]c(C(=O)N[C@H](CO)c3cccc(Cl)c3)c2)c(Cl)cn1 [BVD-523, Ulixertinib]",,efficacy in patients [1]: lasting efficacy; safety in patients [1]: acceptable safety
"Cn1nccc1Nc1nccc(-c2cc(F)c3c(c2)CCN3C(=O)Cc2ccc(F)cc2Cl)n1 [Example P36, 2-(2-chloro-4-fluorophenyl)-1-(7-fluoro-5-(2-((1-methyl-1H-pyrazol-5-yl)amino)pyrimidin-4-yl)indolin-1-yl)ethan-1-one]",10 to 100,
"Cn1nccc1Nc1nccc(-c2cc(F)c3c(c2)CCN3C(=O)Cc2ccncc2Cl)n1 [Example P37, 2-(3-chloropyridin-4-yl)-1-(7-fluoro-5-(2-((1-methyl-1H-pyrazol-5-yl)amino)pyrimidin-4-yl)indolin-1-yl)ethan-1-one]",10 to 100,
"Cn1nccc1Nc1nccc(-c2cc(F)c3c(c2)CCN3C(=O)Cc2cc(F)ccc2Cl)n1 [Example P38, 2-(2-chloro-5-fluorophenyl)-1-(7-fluoro-5-(2-((1-methyl-1H-pyrazol-5-yl)amino)pyrimidin-4-yl)indolin-1-yl)ethan-1-one]",10 to 100,
"Cn1nccc1Nc1nccc(-c2cc(F)c3c(c2)CCN3C(=O)Cc2cc(F)ccc2F)n1 [Example P39, 2-(2,5-difluorophenyl)-1-(7-fluoro-5-(2-((1-methyl-1H-pyrazol-5-yl)amino)pyrimidin-4-yl)indolin-1-yl)ethan-1-one]",100 to 1000,
C[C@H]1Cc2cc(-c3ccnc(Nc4ccnn4C)c3)cc(F)c2N1C(=O)Cc1cccnc1Cl [Example P42],,IC50 (ERK2 kinase; [3]): 2.7 nM
"Cc1cnc(Nc2ccnn2C)nc1-c1cc(F)c2c(c1)CCN2C(=O)Cc1cccnc1Cl [Example P47, 2-(2-chloropyridin-3-yl)-1-(7-fluoro-5-(5-methyl-2-((1-methyl-1H-pyrazol-5-yl)amino)pyrimidin-4-yl)indolin-1-yl)ethan-1-one]",≤ 10,
"Cc1cnc(Nc2ccnn2C)nc1-c1cc(F)c2c(c1)CC(C)N2C(=O)Cc1cccnc1Cl (stereo not drawn) [Example P48, 2-(2-chloropyridin-3-yl)-1-(7-fluoro-2-methyl-5-(5-methyl-2-((1-methyl-1H-pyrazol-5-yl)amino)pyrimidin-4-yl)indolin-1-yl)ethan-1-one]",≤ 10,
"COCC1Cc2cc(-c3nc(Nc4ccnn4C)ncc3C)cc(F)c2N1C(=O)Cc1cccnc1Cl (stereo not drawn) [Example P49, 2-(2-chloropyridin-3-yl)-1-(7-fluoro-2-(methoxymethyl)-5-(5-methyl-2-((1-methyl-1H-pyrazol-5-yl)amino)pyrimidin-4-yl)indolin-1-yl)ethan-1-one]",≤ 10,
"Cn1nccc1Nc1nccc(-c2cc(F)c3c(c2F)CCN3C(=O)Cc2cccnc2Cl)n1 [Example P50, 2-(2-chloropyridin-3-yl)-1-(4,7-difluoro-5-(2-((1-methyl-1H-pyrazol-5-yl)amino)pyrimidin-4-yl)indolin-1-yl)ethan-1-one]",100 to 1000,
"Cn1nccc1Nc1nccc(-c2cc(F)c3c(c2)CCN3C(=O)Cc2cccc(F)c2Cl)n1 [Example P54, 2-(2-chloro-3-fluorophenyl)-1-(7-fluoro-5-(2-((1-methyl-1H-pyrazol-5-yl)amino)pyrimidin-4-yl)indolin-1-yl)ethan-1-one]",10 to 100,
"Cn1nccc1Nc1nccc(-c2cc(F)c3c(c2)CCN3C(=O)Cc2cnccc2Cl)n1 [Example P56, 2-(4-chloropyridin-3-yl)-1-(7-fluoro-5-(2-((1-methyl-1H-pyrazol-5-yl)amino)pyrimidin-4-yl)indolin-1-yl)ethan-1-one]",10 to 100,
"CC1CN(C(=O)Cc2cccnc2Cl)c2c(F)cc(-c3ccnc(Nc4ccnn4C)c3)cc21 (stereo not drawn) [Example P59, 2-(2-chloropyridin-3-yl)-1-(7-fluoro-3-methyl-5-(2-((1-methyl-1H-pyrazol-5-yl)amino)pyridin-4-yl)indolin-1-yl)ethan-1-one]",,IC50 (ERK2 kinase; [3]): 4.8 nM
"Cn1nccc1Nc1cc(-c2cc(F)c3c(c2)CCN3C(=O)C(O)c2cccnc2Cl)ccn1 (stereo not drawn) [Example P60, 2-(2-chloropyridin-3-yl)-1-(7-fluoro-5-(2-((1-methyl-1H-pyrazol-5-yl)amino)pyridin-4-yl)indolin-1-yl)-2-hydroxylethan-1-one]",,IC50 (ERK2 kinase; [3]): 10 nM

# The next lines start with results.
IC50 (ERK2 kinase; [2]) [nM],SMILES,also measured
10 to 100,"Cn1nc(CO)cc1Nc1cc(-c2cc(F)c3c(c2)CCN3C(=O)Cc2cccnc2Cl)ccn1 [Example P35, 2-(2-chloropyridin-3-yl)-1-(7-fluoro-5-(2-((3-(hydroxylmethyl)-1-methyl-1H-pyrazol-5-yl)amino)pyridin-4-yl)indolin-1-yl)ethan-1-one]",
10 to 100,O=C(Cc1cccnc1Cl)N1CCc2cc(-c3ccnc(N[C@H]4C[C@@H](O)C4)c3)cc(F)c21 [Example P40],
10 to 100,"Cn1nccc1Nc1cc(-c2cc(F)c3c(c2)CCN3C(=O)Cc2cccnc2Cl)ncn1 [Example P44, 2-(2-chloropyridin-3-yl)-1-(7-fluoro-5-(6-((1-methyl-1H-pyrazol-5-yl)amino)pyrimidin-4-yl)indolin-1-yl)ethan-1-one]",
≤ 10,"Cc1ncccc1CC(=O)N1CCc2cc(-c3ccnc(Nc4ccnn4C)c3)cc(F)c21 [Example P45, 1-(7-fluoro-5-(2-((1-methyl-1H-pyrazol-5-yl)amino)pyridin-4-yl)indolin-1-yl)-2-(2-methylpyridin-3-yl)ethan-1-one]",
≤ 10,"[2H]C([2H])([2H])n1nccc1Nc1cc(-c2cc(F)c3c(c2)CCN3C(=O)Cc2cccnc2Cl)ccn1 [Example P46, 2-(2-chloropyridin-3-yl)-1-(7-fluoro-5-(2-((1-(deuteriomethyl)-1H-pyrazol-5-yl)amino)pyridin-4-yl)indolin-1-yl)ethan-1-one]",
10 to 100,"Cn1nccc1Nc1cc(-c2cc(F)c3c(c2)CCN3C(=O)CCc2cccnc2Cl)ccn1 [Example P55, 3-(2-chloropyridin-3-yl)-1-(7-fluoro-5-(2-((1-methyl-1H-pyrazol-5-yl)amino)pyridin-4-yl)indolin-1-yl)propan-1-one]",
100 to 1000,"Cn1nccc1Nc1cc(-c2cc(F)c3c(c2)CCN3C(=O)Cc2cccnc2C2CCOCC2)ccn1 [Example P57, 1-(7-fluoro-5-(2-((1-methyl-1H-pyrazol-5-yl)amino)pyridin-4-yl)indolin-1-yl)-2-(2-(tetrahydro-2H-pyran-4-yl)pyridin-3-yl)ethan-1-one]",
≤ 10,"COCC1Cc2cc(-c3ccnc(Nc4ccnn4C)c3)cc(F)c2N1C(=O)Cc1cccnc1Cl (stereo not drawn) [Example P58, 2-(2-chloropyridin-3-yl)-1-(7-fluoro-2-(methoxymethyl)-5-(2-((1-methyl-1H-pyrazol-5-yl)amino)pyridin-4-yl)indolin-1-yl)ethan-1-one]",
10 to 100,"O=C(Cc1cccnc1Cl)N1CCc2cc(-c3ccnc(NC4CC4)c3)cc(F)c21 [Example P61, 2-(2-chloropyridin-3-yl)-1-(5-(2-(cyclopropylamino)pyridin-4-yl)-7-fluoroindolin-1-yl)ethan-1-one]",
